Paper PMC4815068, “A phase I study of high-dose rosuvastatin with standard dose erlotinib in patients with advanced solid malignancies” (Journal of Translational Medicine, 2016)
“Also recorded” adds a separate entry of the source. Like-named read-outs stand apart in the source and are kept apart here. Marks after values point to notes of the source that are not given here.

Assays:
[1] = Pharmacokinetic analysis of serum levels by LC/MS/MS
Experimental: Pharmacokinetic analysis of erlotinib serum levels was undertaken at day 6 (erlotinib alone) and at day 14 (erlotinib and 1 mg/kg/day rosuvastatin treatments) and rosuvastatin at the day 14 timepoint of cycle 1 in 6 study patients (Schedule A). On day 6 and 14 serum erlotinib levels and day 14 serum rosuvastatin levels were determined at 2 h intervals for a full 24 h after drug treatments. The analysis of rosuvastatin and erlotinib was performed by a validated liquid chromatography mass spectrometry/mass spectrometry (LC/MS/MS) method. Protein precipitation (plasma: 50/50 acetonitrile/[…] 1:2) was used for sample preparation before injecting to HPLC for separation. Rosuvastatin, erlotinib and internal standard (IS), 6,7-Dimethyl-2,3-di(2-pyridyl)-quinoxaline (DMDPQ) was eluted by HPLC (Accela, Thermo) using a gradient mobile phase [0.2 % Formic acid (V:V), and 100 % methanol]. […] Detection was done by tandem Mass spectrometer (TSQ Quantum Access MAX, Thermo) with electrospray ionization in positive mode. The multiple reaction monitoring (MRM) was be used to detect specific precursor ion to product ion transitions for rosuvastatin (m/s 482.3/258.1), erlotinib (m/s 394.3/336.2), and IS (m/s 313.2/91.2), respectively. Xcalibur and TSQ Tune master software (Thermo) was used as the system controller and integrator.

recurrent SCC patients = conditions: cited from earlier work
[2] = system: patients with solid tumors; conditions: weekly regimen, lovastatin monotherapy; cited from earlier work
[3] = system: patients with advanced solid tumours
Experimental: This was a single-center, phase I open-label study to determine the safety and RPTD of rosuvastatin in combination with the standard clinical dose of erlotinib (150 mg/day) in patients with advanced solid tumours. […] Eight cohorts from 1 to 8 mg/kg/day rosuvastatin given concurrently with standard dose erlotinb in 28-day cycles were planned. […] Patients received therapy until evidence of disease progression, the development of serious or unmanageable adverse events (SAE), or until study withdrawal. Clinically or radiological documented disease and an ECOG performance status of 0, 1 or 2 was also required. All study patients had adequate hematogical, hepatic and renal functions at baseline. Adequate hematological function was defined as hemoglobin ≥90 g/L, absolute granulocyte count ≥1.5 × 10^9/L and platelet counts ≥100 × 10^9/L. Biochemical parameters for hepatic function included; total bilirubin <1.5× the upper limit of normal (ULN) and ALT/AST <1.5× ULN. […] Any anticholesterol agents were discontinued at least 7 days prior to starting the trial.
Erlotinib was provided by Roche Canada and was administered orally in tablet form at a standard daily dose of 150 mg. […] The starting dose of rosuvastatin was 1 mg/kg/day with the dose of rosuvastatin increasing in a step-wise manner in escalating doses of 1 mg/kg/day. […] During cycle-1 of the dose escalation, treatment with rosuvastin was administered as follows: 1 week off, then daily for 2 weeks, then 1 week off. […] Doses were rounded to the nearest 5 mg since rosuvastatin is available in 5, 10, 20 and 40 mg tablets (purchased from AstraZeneca, Canada). Oral administration of rosuvastatin was once daily if daily dose was <80 mg, twice if 81–160 mg, three times a day if 161–240 mg and four times a day if >240 mg daily dose. […] No prophylactic medications were supplied. Standard supportive care medications were allowed. Oral supplementation of ubiquinone at 60 mg po QID was initiated if patient developed grade 3 or 4 muscle toxicity and continued until recovery to baseline.
A 3 + 3 dose escalation phase I study design was used, with 3 patients planned at each cohort. […] All 3 patients at a given dose level needed to complete the first cycle of treatment without suffering DLT before new patients were enrolled at the next dose level. The lead patient at each new dose level completed the first cycle of treatment before other patients were enrolled at the same dose level. If 1/3 initial patients at each dose experienced a DLT, then the treatment level was expanded to at least 6 patients. […] There was no dose escalations allowed within individual patients. If >2 patients at any dose level experienced DLT, then that level was considered to have exceeded the maximal tolerated dose (MTD), and the level immediately preceding that level was designated as MTD and RPTD.

CYP3A4 = conditions: cited from earlier work
advanced solid tumours = experiment: Tumor response (RECIST) and days on study; format: in vivo, human
Experimental: Physical examinations occurred at the start of each cycle and radiological tumor evaluations were completed after every 2 cycles. Tumor response was assessed using response evaluation criteria in solid tumors (RECIST) criteria. […] In these cases, the patient went off protocol treatment. […] Similar strategies were employed for other toxicities as well. […] This study was conducted according to Good Clinical Practice.

[4] = On-study laboratory evaluations (CPK, cholesterol, LDL, HDL); format: in vivo, human
Experimental: Patients had weekly laboratory evaluations for hematogical, hepatic and renal functions and biochemical changes including creatine and creatine phosphokinase (CPK) and fasting total cholesterol, HDL and LDL during cycle 1 and at the start of each subsequent cycle. Physical examinations occurred at the start of each cycle and radiological tumor evaluations were completed after every 2 cycles. Tumor response was assessed using response evaluation criteria in solid tumors (RECIST) criteria.

NSCLC patients = system: NSCLC patients; set-up: method as in PMID 21411446; conditions: hypercholesterolemia dose of simvastatin daily with standard dose gefitinib, SCC patients; cited from earlier work
[5] = concurrent rosuvastatin + erlotinib

For `C#Cc1cccc(Nc2ncnc3cc(OCCOC)c(OCCOC)cc23)c1` [erlotinib], the Tmax ([1]; erlotinib (+rosuvastatin 1 mg/kg/day) (day 14), individual Schedule A patients 14-18) was 6 h, the Tmax ([1]; erlotinib alone (day 6), 150 mg/day, individual Schedule A patients 13-18) was 6 h and the “Half-life of erlotinib on addition of rosuvastatin” value ([1]; human, in vivo) was “unaffected”. The half-life ([1]; human, in vivo, 150 mg/day) was 18.1 h, the half-life ([1]; human, in vivo, 150 mg/day, t 1/2, erlotinib alone (day 6), 150 mg/day, individual Schedule A patients 13-18) was 25.7 h and the half-life ([1]; human, in vivo, t1/2) was 24.3 h. For the same compound, the “Erlotinib AUC, day 6 (alone) versus day 14 (+rosuvastatin)” value ([1]; in vivo) was “did not differ significantly”, the “Erlotinib Cmax and Tmax, day 6 versus day 14 (+rosuvastatin)” value ([1]; in vivo) was “similar” and the “Plasma erlotinib levels on addition of rosuvastatin” value ([1]; in vivo) was “unaffected”.

For `CC[C@H](C)C(=O)O[C@H]1C[C@@H](C)C=C2C=C[C@H](C)[C@H](CC[C@@H]3C[C@@H](O)CC(=O)O3)[C@H]21` [lovastatin], the DLT of lovastatin (recurrent SCC patients; prolonged oral administration, recurrent SCC) is listed as “reversible muscle toxicity”, the “Patients with disease stabilization lasting greater than 3 months” value (recurrent SCC patients; single agent lovastatin, SCC patients) is listed as 23% and the “Dose-limiting muscle toxicities greater than grade 2 in severity” value (recurrent SCC patients; single agent lovastatin, of the 5 patients with muscle DLT) is listed as 2. The “Patients with reversible dose-limiting muscle toxicities” value (recurrent SCC patients; single agent lovastatin, of the 24 patients enrolled) was 5 patients and the “Clinical efficacy as an anticancer therapy” value [2] was “failed to demonstrate clinical efficacy”.

For `CC(C)c1nc(N(C)S(C)(=O)=O)nc(-c2ccc(F)cc2)c1/C=C/[C@@H](O)C[C@@H](O)CC(=O)O` [rosuvastatin], the “Anorexia, ≥Grade 2” value ([3]; human, in vivo) was 62.5%, the “Anxiety, ≥Grade 2” value ([3]; human, in vivo) was 4.2% and the “Diarrhea, ≥Grade 2” value ([3]; human, in vivo) was 20.8%. For the same compound, the “Fatigue, ≥Grade 2” value ([3]; human, in vivo) was 75.0%, the “Muscle weakness, ≥Grade 2” value ([3]; human, in vivo) was 41.7% and the “Myalgia, ≥Grade 2” value ([3]; human, in vivo) was 29.2%. The “Nausia, ≥Grade 2” value ([3]; human, in vivo) was 16.7%, the “Rash, ≥Grade 2” value ([3]; human, in vivo) was 29.2% and the “Rhabdomyolysis, ≥Grade 2” value ([3]; human, in vivo) was 4.2^a %. For the same compound, the “Vomiting, ≥Grade 2” value ([3]; human, in vivo) was 16.7%, the “Weight loss, ≥Grade 2” value ([3]; human, in vivo) was 16.7% and the “Patients who developed rhabdomyolysis (study related death)” value ([3]; rosuvastatin 2 mg/kg/day + erlotinib, 8 evaluable patients) was “single patient out of 8”. For the same compound, the CYP3A4 substrate (CYP3A4; ref 32) was “non-CYP3A4 substrate”, the CYP3A4 substrate (CYP3A4; ref 33) was “not a CYP3A4 substrate” and the “Patients with durable stable disease, NSCLC” value (advanced solid tumours; [5]) was 2/4. For the same compound, the “Patients with durable stable disease, genitourinary (GU) cancer (vaginal squamous epithelial carcinoma)” value (advanced solid tumours; [5]) was 1/4, the “Patients with durable stable disease, pancreatic cancer (neuroendocrine tumour)” value (advanced solid tumours; [5]) was 1/2 and the “Evaluable patients on study for greater than 170 days” value (advanced solid tumours; concurrent rosuvastatin + erlotinib (Cohorts 1, 2 and Schedule A)) was 4/16. For the same compound, the “Patients on study for greater than 275 days” value (advanced solid tumours; concurrent rosuvastatin + erlotinib, 16 evaluable) was 3 patients, the “Durable stable disease for more than 170 days (rate)” value (advanced solid tumours; concurrent rosuvastatin + erlotinib, evaluable for response n = 16) was 25% and the “Patients with disease stabilization greater than 6 months” value (advanced solid tumours; concurrent treatment regimens, rosuvastatin + erlotinib) was 4/16. The “Objective responses (RECIST)” value (advanced solid tumours; rosuvastatin + erlotinib, 22 evaluable patients) was “No objective responses; also recorded: absence of objective responses”, the “Patients with elevated CPK levels during rosuvastatin treatments” value ([4]; 1 mg/kg/day dose + erlotinib) was 1 out of 16 and the “Patients with elevated CPK levels during rosuvastatin treatments” value ([4]; 2 mg/kg/day dose (Cohort 2) + erlotinib) was 4 out of the 8. The “Serum CPK level in the patient with rhabdomyolysis” value ([4]; day 28 (erlotinib and rosuvastatin 2 mg/kg/day), increased from 60 U/L) was “over 2000 U/L” and the “Change in serum cholesterol, LDL or HDL levels” value ([4]; rosuvastatin + erlotinib, even in patients on study greater than 170 days) was “did not result in significant changes”.

In the case of `CCC(C)(C)C(=O)O[C@H]1C[C@@H](C)C=C2C=C[C@H](C)[C@H](CC[C@@H]3C[C@@H](O)CC(=O)O3)[C@H]21` [simvastatin], the “Response rates and PFS compared to gefitinib alone” value (NSCLC patients) is given as “higher response rates and longer PFS”.
